This passage reports T/C results from PubChem BioAssay AID248 (DTP/NCI, 2004).

“And” between values parts separate entries of the source, which are not always exact repeats. Identical values can stand only once. Toxic doses and inconclusive results are not listed.

The test system of this test is L1210 leukemia ip in BDF1 mice, survival T/C. In words: NCI In Vivo Anticancer Drug Screen. Data for tumor model L1210 Leukemia (intraperitoneal) in B6D2F1 (BDF1) mice. The following applies: endpoint: mean survival time, higher = longer survival. In short, it runs like this: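 Ratio derived from survival: compound-dosed mice over vehicle-dosed mice, all bearing a transplantable tumor.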

The mark [1] stands for this setting: dose: 100.0 mg/kg/injection, schedule: Q01DX009 (ip), vehicle: saline.
[2] abbreviates: dose: 100.0 mg/kg/injection, schedule: Q04DX003 (ip), vehicle: saline.
[3] abbreviates: dose: 200.0 mg/kg/injection, schedule: Q01DX009 (ip), vehicle: saline.
Setting [4] is: dose: 200.0 mg/kg/injection, schedule: Q04DX003 (ip), vehicle: saline.
The mark [5] stands for this setting: dose: 400.0 mg/kg/injection, schedule: Q01DX009 (ip), vehicle: saline.
Setting [6] is: dose: 400.0 mg/kg/injection, schedule: Q04DX003 (ip), vehicle: saline.
[7] abbreviates: dose: 100.0 mg/kg/injection, schedule: Q01DX001 (ip), vehicle: Klucel (hydroxypropylcellulose) (HPC).
Where [8] appears, read: dose: 100.0 mg/kg/injection, schedule: Q01DX009 (ip), vehicle: Klucel (hydroxypropylcellulose) (HPC).
Setting [9] is: dose: 100.0 mg/kg/injection, schedule: Q04DX003 (ip), vehicle: Klucel (hydroxypropylcellulose) (HPC).
The mark [10] stands for this setting: dose: 200.0 mg/kg/injection, schedule: Q01DX001 (ip), vehicle: Klucel (hydroxypropylcellulose) (HPC).
Where [11] appears, read: dose: 200.0 mg/kg/injection, schedule: Q01DX009 (ip), vehicle: Klucel (hydroxypropylcellulose) (HPC).
Setting [12] is: dose: 200.0 mg/kg/injection, schedule: Q04DX003 (ip), vehicle: Klucel (hydroxypropylcellulose) (HPC).
The mark [13] stands for this setting: dose: 400.0 mg/kg/injection, schedule: Q01DX001 (ip), vehicle: Klucel (hydroxypropylcellulose) (HPC).
Where [14] appears, read: dose: 400.0 mg/kg/injection, schedule: Q01DX009 (ip), vehicle: Klucel (hydroxypropylcellulose) (HPC).
Setting [15] is: dose: 400.0 mg/kg/injection, schedule: Q04DX003 (ip), vehicle: Klucel (hydroxypropylcellulose) (HPC).
Where [16] appears, read: dose: 100.0 mg/kg/injection, schedule: Q01DX001 (ip), vehicle: saline.
Setting [17] is: dose: 200.0 mg/kg/injection, schedule: Q01DX001 (ip), vehicle: saline.
Where [18] appears, read: dose: 400.0 mg/kg/injection, schedule: Q01DX001 (ip), vehicle: saline.

For the molecule `Nc1nc(SCc2ccccc2)c2ncn(CCCl)c2n1`, the T/C (dose: 5.0 mg/kg/injection, schedule: Q01DX001 (ip), vehicle: carboxymethylcellulose (CMC)) was 107 % of control; the T/C (dose: 10.0 mg/kg/injection, schedule: Q01DX001 (ip), vehicle: carboxymethylcellulose (CMC)) was 107 % of control; the T/C (dose: 13.0 mg/kg/injection, schedule: Q01DX Z (ip), vehicle: carboxymethylcellulose (CMC)) was 105 % of control; the T/C (dose: 20.0 mg/kg/injection, schedule: Q01DX001 (ip), vehicle: carboxymethylcellulose (CMC)) was 107 % of control; the T/C (dose: 30.0 mg/kg/injection, schedule: Q01DX Z (ip), vehicle: carboxymethylcellulose (CMC)) was 150 % of control; the T/C (dose: 40.0 mg/kg/injection, schedule: Q01DX001 (ip), vehicle: carboxymethylcellulose (CMC)) is 120 % of control. Besides, the T/C runs as follows: (dose: 67.0 mg/kg/injection, schedule: Q01DX Z (ip), vehicle: carboxymethylcellulose (CMC)) 116 % of control; (dose: 80.0 mg/kg/injection, schedule: Q01DX001 (ip), vehicle: carboxymethylcellulose (CMC)) 122 % of control; (dose: 100.0 mg/kg/injection, schedule: Q01DX Z (ip), vehicle: carboxymethylcellulose (CMC)) 101 % of control; (dose: 150.0 mg/kg/injection, schedule: Q01DX Z (ip), vehicle: carboxymethylcellulose (CMC)) 90 % of control; (dose: 320.0 mg/kg/injection, schedule: Q01DX001 (ip), vehicle: carboxymethylcellulose (CMC)) 116 % of control.
With `O=c1[nH]c2nc(Cl)c(Cl)nc2[nH]1`, the T/C (dose: 50.0 mg/kg/injection, schedule: Q01DX009 (ip), vehicle: saline) is 98 % of control; the T/C under setting [1] was 95 % of control and 96 % of control; the T/C under setting [2] is 94 % of control; the T/C under setting [3] was 108 % of control and 116 % of control; the T/C under setting [4] was 105 % of control; the T/C (dose: 300.0 mg/kg/injection, schedule: Q01DX009 (ip), vehicle: saline) was 92 % of control. For the same molecule, the T/C under setting [5] was 86 % of control.
Consider `Clc1ncnc2[nH]cc(Br)c12`, for which the T/C (dose: 50.0 mg/kg/injection, schedule: Q01DX001 (ip), vehicle: carboxymethylcellulose (CMC)) is 98 % of control; the T/C (dose: 100.0 mg/kg/injection, schedule: Q01DX001 (ip), vehicle: carboxymethylcellulose (CMC)) is 104 % of control; the T/C (dose: 200.0 mg/kg/injection, schedule: Q01DX001 (ip), vehicle: carboxymethylcellulose (CMC)) was 110 % of control; the T/C (dose: 400.0 mg/kg/injection, schedule: Q01DX001 (ip), vehicle: carboxymethylcellulose (CMC)) is 98 % of control.
In the case of `O=C1CCCN1C1=CC2=C(CCc3ccccc32)S(=O)(=O)O1`, the T/C under setting [1] was 90 % of control; the T/C under setting [2] was 100 % of control; the T/C under setting [3] was 90 % of control; the T/C under setting [4] is 94 % of control; the T/C under setting [5] was 95 % of control; the T/C under setting [6] was 108 % of control.
Take `COc1ccc(NC(=O)Oc2cccc(OC(=O)c3ccccc3)c2)cc1`: the T/C is 96 % of control under setting [7]; 104 % of control and 106 % of control under setting [8]; 93 % of control and 103 % of control and 106 % of control (dose: 100.0 mg/kg/injection, schedule: Q04DX002 (ip), vehicle: Klucel (hydroxypropylcellulose) (HPC)); 98 % of control under setting [9]; 93 % of control under setting [10]; 100 % of control and 103 % of control under setting [11]. The T/C is, setting by setting: (dose: 200.0 mg/kg/injection, schedule: Q04DX002 (ip), vehicle: Klucel (hydroxypropylcellulose) (HPC)) 99 % of control and 100 % of control and 103 % of control; under setting [12], 98 % of control; under setting [13], 93 % of control; under setting [14], 97 % of control and 98 % of control; (dose: 400.0 mg/kg/injection, schedule: Q04DX002 (ip), vehicle: Klucel (hydroxypropylcellulose) (HPC)) 93 % of control and 97 % of control and 99 % of control; under setting [15], 91 % of control.
Turning to `CC(=O)NC(C)(SC(C)=O)C(=O)O` (centres undefined), the T/C by setting is: under setting [7], 94 % of control; under setting [10], 95 % of control; under setting [13], 94 % of control.
As for `COC(=O)N1C=Cc2ccccc2C1C#N` (centres undefined), the T/C under setting [2] was 107 % of control.
Turning to `CCC[As](=O)(O)c1ccc(Cl)cc1`, the T/C (dose: 1.56 mg/kg/injection, schedule: Q01DX001 (ip), vehicle: Klucel (hydroxypropylcellulose) (HPC)) is 100 % of control; the T/C (dose: 3.13 mg/kg/injection, schedule: Q01DX001 (ip), vehicle: Klucel (hydroxypropylcellulose) (HPC)) was 91 % of control; the T/C (dose: 6.25 mg/kg/injection, schedule: Q01DX001 (ip), vehicle: Klucel (hydroxypropylcellulose) (HPC)) is 98 % of control; the T/C (dose: 12.5 mg/kg/injection, schedule: Q01DX001 (ip), vehicle: Klucel (hydroxypropylcellulose) (HPC)) is 109 % of control; the T/C (dose: 25.0 mg/kg/injection, schedule: Q01DX001 (ip), vehicle: Klucel (hydroxypropylcellulose) (HPC)) is 92 % of control.
For the molecule `CCC(N)Cc1ccc2c(c1)OCO2` (centres undefined), the T/C reads like this: (dose: 25.0 mg/kg/injection, schedule: Q04DX003 (ip), vehicle: saline) 98 % of control; (dose: 50.0 mg/kg/injection, schedule: Q04DX003 (ip), vehicle: saline) 101 % of control; under setting [2], 100 % of control.
`CN(C)NP(=O)(NN(C)C)N(C)C`: the T/C under setting [2] is 100 % of control, the T/C under setting [4] is 100 % of control and the T/C under setting [6] was 94 % of control.
As to `CN(C)C(=O)C1C2C=CC(C2)C1C(=O)N(C)C` (centres undefined), the T/C (dose: 100.0 mg/kg/injection, schedule: Q04DX003 (ip), vehicle: saline with Tween-80) was 98 % of control; the T/C (dose: 200.0 mg/kg/injection, schedule: Q04DX003 (ip), vehicle: saline with Tween-80) was 95 % of control; the T/C (dose: 400.0 mg/kg/injection, schedule: Q04DX003 (ip), vehicle: saline with Tween-80) was 98 % of control.
Turning to `CC(C)NC(=O)NC(C)C`, the T/C runs as follows: under setting [7], 100 % of control; under setting [10], 96 % of control; under setting [13], 94 % of control.
With `Cc1[nH]nc2c(=S)[nH]c(=O)[nH]c12`, the T/C is 92 % of control (dose: 75.0 mg/kg/injection, schedule: Q01DX001 (ip), vehicle: saline) and 96 % of control (dose: 150.0 mg/kg/injection, schedule: Q01DX001 (ip), vehicle: saline).
For the molecule `COC(OC)C1C=CC=CC=C1`, under “dose: 200.0 mg/kg/injection, schedule: Q01DX009 (ip), vehicle: saline with Tween-80”, the T/C was 95 % of control.
In the case of `CC(=O)OC1C=COC(C)C1OC(C)=O` (centres undefined), the T/C by setting is: (dose: 50.0 mg/kg/injection, schedule: Q01DX001 (ip), vehicle: saline) 105 % of control; under setting [16], 97 % of control; under setting [1], 109 % of control; under setting [2], 102 % of control; under setting [17], 100 % of control; under setting [3], 93 % of control. For the same molecule, the T/C runs as follows: under setting [4], 91 % of control; under setting [18], 105 % of control; under setting [5], 102 % of control; under setting [6], 96 % of control.
Turning to `COC(=O)c1ccccc1NC(=O)c1cccc(Cl)c1`, the T/C runs as follows: under setting [8], 114 % of control; under setting [11], 118 % of control; under setting [14], 102 % of control.
Consider `NC(Cc1ncc[nH]1)C(=O)O` (centres undefined), for which the T/C by setting is: (dose: 100.0 mg/kg/injection, schedule: Q04DX002 (ip), vehicle: other) 104 % of control; (dose: 200.0 mg/kg/injection, schedule: Q04DX002 (ip), vehicle: other) 96 % of control; (dose: 400.0 mg/kg/injection, schedule: Q04DX002 (ip), vehicle: other) 119 % of control.
As for `COc1ccc(C(=O)NCCBr)cc1[N+](=O)[O-]`, the T/C by setting is: under setting [16], 108 % of control; under setting [9], 97 % of control; under setting [17], 103 % of control; under setting [12], 101 % of control; under setting [18], 98 % of control; under setting [15], 111 % of control.
Regarding `CC(=O)Nc1c2ccccc2nc2ccccc12`, the T/C (dose: 100.0 mg/kg/injection, schedule: Q04DX002 (ip), vehicle: saline with Tween-80) is 90 % of control; the T/C (dose: 200.0 mg/kg/injection, schedule: Q04DX002 (ip), vehicle: saline with Tween-80) is 97 % of control; the T/C (dose: 400.0 mg/kg/injection, schedule: Q04DX002 (ip), vehicle: saline with Tween-80) was 90 % of control.
